Test results reported in patent EP2881391A1, “Spiroindoline carbocycle derivatives and pharmaceutical compositions thereof” (Bayer Pharma Aktiengesellschaft, priority 2013, dated 2015).

Target: T1, human GnRH receptor (Homo sapiens, UniProt P30968)
T1 construct: line established by Prof; Thomas Gudermann; host or cells: CHO cells
T1 sequence (P30968 1-328): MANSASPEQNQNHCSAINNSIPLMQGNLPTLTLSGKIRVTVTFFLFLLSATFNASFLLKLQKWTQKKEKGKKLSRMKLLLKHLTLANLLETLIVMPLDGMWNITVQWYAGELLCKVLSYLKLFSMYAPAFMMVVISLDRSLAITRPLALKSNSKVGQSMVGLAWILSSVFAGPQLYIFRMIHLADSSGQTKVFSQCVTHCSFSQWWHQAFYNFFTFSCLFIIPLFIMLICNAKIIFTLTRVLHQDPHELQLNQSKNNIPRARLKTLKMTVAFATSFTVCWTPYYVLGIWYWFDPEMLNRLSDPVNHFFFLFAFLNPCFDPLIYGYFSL
Test: IP-One HTRF assay (inhibition of GnRH-R activation by buserelin)
Format: cell-based
Conditions: IP-One HTRF assay with buserelin (at EC80) stimulation; CHO cells stably expressing human GnRH receptor; tested 20 µM to 1 nM; read-out: Potency IC50
Description: By using homogenous time-resolved fluorescence resonance energy transfer (HTRF), the generation of one component of the GnRH-R signalling cascade can be measured. After stimulation of CHO cells stably expressing human GnRH receptor (established by Prof. Thomas Gudermann, currently University of Marburg, Germany; supplied as frozen cell aliquots by Cell Culture Services, Hamburg, Germany) with the EC80 of the GnRH agonist buserelin, Gq protein-coupled receptor signalling cascade is activated resulting in PLC-dependent cleavage of PIP2 to Inositol-1,4,5-triphosphate (IP3) and Diacylglycerol. The second messenger IP3 is degraded intracellularly to myo-inositol. Inhibition of the final degradation step from Inositol-1-phosphate (IP1) to myo-inositol by addition of lithium chloride leads to accumulation of IP1 in the cells. In cell lysates, IP1 can be detected via an antibody-based HTRF detection technology, where IP1 can displace the FRET acceptor IP1-d2 from binding by Terbium-labelled anti-IP1 antibody as donor resulting in a signal decrease. Compounds were tested for their capability of inhibiting GnRH-R activation by buserelin. For all IP-One HTRF® assays reagents of Cisbio Bioassays (IP-One Tb Jumbo kit, #62IPAPEJ; Cisbio Bioassays, Bagnols sur Cèze Cedex, France) were used.
For the assay, frozen cell aliquots were thawed and a cell suspension (3.33x10^6 cells/ml) containing IP1-d2 (dilution 1:40) was prepared and incubated at 37°C. After 1 h 3 µl of the cell suspension were added to 50 nl of a 100-fold concentrated solution of the test compound in DMSO pre-dispensed in a well of a white low-volume 384-well microtiter plate (Greiner Bio-One, Frickenhausen, Germany). The mixture was incubated for 20 min at 22°C to allow for pre-binding of the test compound to the GnRH-R. The receptor signaling cascade was stimulated by addition of 2 µl buserelin or LHRH (at EC50 or EC80) in stimulation buffer (10 mM Hepes pH 7.4, 1 mM CaCl2, 0.5 mM MgCl2, 4.2 mM KCI, 146 mM NaCl, 5.5 mM α-D-Glucose, 0.05% BSA, 125 mM LiCl (final assay concentration 50 mM) in aqua dest.). Plates were incubated for 1 h at 37°C and 5% carbon dioxide before the cells were lysed by adding 3 µl Terbium-labelled anti-IP1 antibody (1:40) diluted in Conjugate & Lysis buffer as supplied with the kit. After an incubation for 1 h at 22°C to enable complete cell lysis and antibody binding to free IP1 or IP1-d2, plates were measured in an HTRF reader, e.g. a RUBYstar, PHERAstar (both BMG Labtechnologies, Offenburg, Germany) or a Viewlux (PerkinElmer LAS, Rodgau-Jügesheim, Germany). From the fluorescence emissions at 665 nm (FRET) and at 620 nm (background signal of Terbium-antibody), the ratio (emission at 665 nm divided by emission at 620 nm) was calculated and the data were normalized (reaction without test compound = 0% inhibition; all other assay components except agonist = 100% inhibition). On the same microtiter plate, compounds were tested at 10 different concentrations in the range of 20 µM to 1 nM (20 µM, 6.7 µM, 2.2 µM, 0.74 µM, 0.25 µM, 82 nM, 27 nM, 9.2 nM, 3.1 nM and 1 nM; dilution series prepared before the assay at the level of the 100-fold conc. stock solutions by serial 1:3 dilutions in 100% DMSO) in duplicate values for each concentration. By using an in-house software, the IC50 values were calculated by a 4 parameter fit. The data reveal that the compounds of the present invention have antagonist activities on the human GnRH receptor. Within the meaning of the present invention the antagonist activity is reflected by the ability of a compound of the invention to antagonize human GnRH receptor stimulation in IP-One HTRF® assay at least three times the standard deviation over the background level.

| Compound | IC50 [nM] |
| --- | --- |
| O=C(NCC1CC1)c1ccc2c(c1)C1(CCC(O)(C(F)(F)F)CC1)C(C1CC1)N2S(=O)(=O)c1ccc(F)cc1 (stereo not shown) [Example 59, 2'-cyclopropyl-N-(cyclopropylmethyl)-1'-[(4-fluorophenyl)sulfonyl]-4-hydroxy-4-(trifluoromethyl)-1',2'-dihydrospiro[cyclohexane-1,3'-indole]-5'-carboxamide] | 690 |
| O=C(NCc1ncccc1C(F)(F)F)c1ccc2c(c1)C1(CCC(O)(C(F)(F)F)CC1)C(C1CC1)N2S(=O)(=O)c1cccc(C(=O)N2CCC2)c1 (single isomer, unassigned) [Example 66-2] | 612 |
| CC(C)=CCC1N(S(=O)(=O)c2ccc(F)cc2)c2ccc(C(=O)Nc3cc[nH]n3)cc2C12CCC(O)(C(F)(F)F)CC2 (stereo not shown) [Example 12, 1'-[(4-fluorophenyl)sulfonyl]-4-hydroxy-2'-(3-methylbut-2-en-1-yl)-N-(1H-pyrazol-3-yl)-4-(trifluoromethyl)-1',2'-dihydrospiro[cyclohexane-1,3'-indole]-5'-carboxamide] | 1420 |
| O=C(Nc1cncc(C(F)(F)F)c1)c1ccc2c(c1)C1(CCC(O)(C(F)(F)F)CC1)C(C1CC1)N2S(=O)(=O)c1ccc(F)cc1 (stereo not shown) [Example 58, 2'-cyclopropyl-1'-[(4-fluorophenyl)sulfonyl]-4-hydroxy-4-(trifluoromethyl)-N-[5-(trifluoromethyl)pyridin-3-yl]-1',2'-dihydrospiro[cyclohexane-1,3'-indole]-5'-carboxamide] | 3120 |
| O=C(NC1CCc2ccccc21)c1ccc2c(c1)C1(CCC(O)(C(F)(F)F)CC1)C(C1CC1)N2S(=O)(=O)c1ccc(F)cc1 (stereo not shown) [Example 53, 2'-cyclopropyl-N-(2,3-dihydro-1H-inden-1-yl)-1'-[(4-fluorophenyl)sulfonyl]-4-hydroxy-4-(trifluoromethyl)-1',2'-dihydrospiro[cyclohexane-1,3'-indole]-5'-carboxamide] | 611 |
| O=C(NCc1ccccc1Cl)c1ccc2c(c1)C1(CCC(=NO)CC1)C(C1CC1)N2S(=O)(=O)c1ccc(F)cc1 (stereo not shown) [Example 5, N-(2-chlorobenzyl)-2'-cyclopropyl-1'-[(4-fluorophenyl)sulfonyl]-4-(hydroxyimino)-1',2'-dihydrospiro[cyclohexane-1,3'-indole]-5'-carboxamide] | 65.7 |
| O=C1CCC2(CC1)c1cc(C(=O)NCc3ccccc3Cl)ccc1N(S(=O)(=O)c1ccc(F)cc1)C2C1CC1 (racemic) [Example 3, N-(2-chlorobenzyl)-2'-cyclopropyl-1'-[(4-fluorophenyl)sulfonyl]-4-oxo-1',2'-dihydrospiro[cyclohexane-1,3'-indole]-5'-carboxamide] | 46.8 |
| COC(=O)c1cccc(NC(=O)c2ccc3c(c2)C2(CCC(O)(C(F)(F)F)CC2)C(CC=C(C)C)N3S(=O)(=O)c2ccc(F)cc2)c1 (stereo not shown) [Example 32, methyl 3-[({1'-[(4-fluorophenyl)sulfonyl]-4-hydroxy-2'-(3-methylbut-2-en-1-yl)-4-(trifluoromethyl)-1',2'-dihydrospiro[cyclohexane-1,3'-indol]-5'-yl}carbonyl)amino] benzoate] | 494 |
| O=C1CCC2(CC1)c1cc(C(=O)NCc3ccccc3Cl)ccc1N(S(=O)(=O)c1ccc(F)cc1)C2C1CC1 (single isomer, unassigned) [Example 3-1] | 41.3 |
| O=C(NCc1ncccc1Cl)c1ccc2c(c1)C1(CCC(O)(C(F)(F)F)CC1)C(C1CC1)N2S(=O)(=O)c1ccc(F)cc1 (racemic) [Example 1, N-[(3-chloropyridin-2-yl)methyl]-2'-cyclopropyl-1'-[(4-fluorophenyl)sulfonyl]-4-hydroxy-4-(trifluoromethyl)-1',2'-dihydrospiro[cyclohexane-1,3'-indole]-5'-carboxamide] | 354 |
| COC(=O)c1cccc(NC(=O)c2ccc3c(c2)C2(CCC(O)(C(F)(F)F)CC2)C(C2CC2)N3S(=O)(=O)c2cccc(OC)c2)c1 (stereo not shown) [Example 31, methyl 3-[({2'-cyclopropyl-4-hydroxy-1'-[(3-methoxyphenyl)su Ifonyl]-4-(trifluoromethyl)-1',2'-dihydrospiro[cyclohexane-1,3'-indol]-5'-yl}carbonyl)amino] benzoate] | 669 |
| CC(C)=CCC1N(S(=O)(=O)c2ccc(F)cc2)c2ccc(C(=O)Nc3cccc(S(N)(=O)=O)c3)cc2C12CCC(O)(C(F)(F)F)CC2 (stereo not shown) [Example 16, 1'-[(4-fluorophenyl)sulfonyl]-4-hydroxy-2'-(3-methylbut-2-en-1-yl)-N-(3-sulfamoylphenyl)-4-(trifluoromethyl)-1',2'-dihydrospiro[cyclohexane-1,3'-indole]-5'-carboxamide] | 1850 |
| COC(=O)c1cccc(S(=O)(=O)N2c3ccc(C(=O)NCc4ccccc4Cl)cc3C3(CCCCC3)C2C2CC2)c1 (stereo not shown) [Example 9, methyl 3-({5'-[(2-chlorobenzyl)carbamoyl]-2'-cyclopropylspiro[cyclohexane-1,3'-indol]-1'(2'H)-yl}sulfonyl)benzoate] | 2290 |
| O=C(Nc1ccon1)c1ccc2c(c1)C1(CCC(O)(C(F)(F)F)CC1)C(C1CC1)N2S(=O)(=O)c1ccc(F)cc1 (stereo not shown) [Example 56, 2'-cyclopropyl-1' [(4-fluorophenyl)sulfonyl]-4-hydroxy-N-(1,2-oxazol-3-yl)-4-(trifluoromethyl)-1',2'-dihydrospiro[cyclohexane-1,3'-indole]-5'-carboxamide] | 286 |
| O=C(Nc1ccon1)c1ccc2c(c1)C1(CCC(O)(C(F)(F)F)CC1)C(C1CC1)N2S(=O)(=O)c1ccc(F)cc1 (single isomer, unassigned) [Example 56-1] | 215 |
| O=C(NCc1ncccc1Cl)c1ccc2c(c1)C1(CCC(O)(C(F)(F)F)CC1)C(C1CC1)N2S(=O)(=O)c1ccc(F)cc1 (single isomer, unassigned) [Example 1-2] | 135 |
| O=C(Nc1ccon1)c1ccc2c(c1)C1(CCC(O)(C(F)(F)F)CC1)C(C1CC1)N2S(=O)(=O)c1cccc(C(=O)N2CCC2)c1 (stereo not shown) [Example 57, 1'-{[3-(azetidin-1-ylcarbonyl)phenyl]sulfonyl}-2'-cyclopropyl-4-hydroxy-N-(1,2-oxazol-3-yl)-4-(trifluoromethyl)-1',2'-dihydrospiro[cyclohexane-1,3'-indole]-5'-carboxamide] | 1220 |
| COc1cccc(S(=O)(=O)N2c3ccc(C(=O)Nc4cc[nH]n4)cc3C3(CCC(O)(C(F)(F)F)CC3)C2C2CC2)c1 (stereo not shown) [Example 33, 2'-cyclopropyl-4-hydroxy-1'-[(3-methoxyphenyl)su Ifonyl]-N-(1H-pyrazol-3-yl)-4-(trifluoromethyl)-1',2'-dihydrospiro[cyclohexane-1,3'-indole]-5'-carboxamide] | 2230 |
| O=C(NCc1ccccc1Cl)c1ccc2c(c1)C1(CCC(O)CC1)C(C1CC1)N2S(=O)(=O)c1ccc(F)cc1 (stereo not shown) [Example 2, N-(2-chlorobenzyl)-2'-cyclopropyl-1'-[(4-fluorophenyl)sulfonyl]-4-hydroxy-1',2'-dihydrospiro[cyclohexane-1,3'-indole]-5'-carboxamide] | 60.7 |
